Test results reported in the supplement of paper PMC11061612.

How the values were obtained:
Gefitinib = compound: COc1cc2ncnc(Nc3ccc(F)c(Cl)c3)c2cc1OCCCN1CCOCC1 [Gefitinib]; details: max 10 µM
Procedure, shortened: (§1)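 Following 24 hours at 37°C and 5% CO2, cancer cell lines in 1536-well plates with 7.5 μl DMEM/F12 or RPMI and 10% FBS were dosed for 72 hours, final DMSO typically being 0.2%. CellTiter-Glo 2.0 luminescence, scaled between blank-well and DMSO-well means, gave the viability readout. Dose responses were fitted to a two-parameter logistic curve with a non-linear mixed effects model, and the single-agent IC50 was derived from this fit.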

Palbociclib = compound: CC(=O)c1c(C)c2cnc(Nc3ccc(N4CCNCC4)cn3)nc2n(C2CCCC2)c1=O [Palbociclib]; details: max 10 µM
Procedure, shortened: as §1

AZD2811 = compound: CCN(CCO)CCCOc1ccc2c(Nc3cc(CC(=O)Nc4cccc(F)c4)[nH]n3)ncnc2c1 [AZD2811]; details: max 1 µM
Procedure, shortened: as §1

Dasatinib = compound: CC1=C(C(=CC=C1)Cl)NC(=O)C2=CN=C(S2)NC3=CC(=NC(=N3)C)N4CCN(CC4)CCO [Dasatinib]; details: max 2 µM
Procedure, shortened: as §1

AZD5991 = compound: Cc1c2c(nn1C)CSCc1cc(n(C)n1)CSc1cc(c3ccccc3c1)OCCCc1c(C(=O)O)n(C)c3c-2c(Cl)ccc13 [AZD5991]; details: max 1 µM
Procedure, shortened: as §1

SN-38 = compound: CCc1c2c(nc3ccc(O)cc13)-c1cc3c(c(=O)n1C2)COC(=O)[C@]3(O)CC [SN-38]; details: max 0.3 µM
Procedure, shortened: as §1

Savolitinib = compound: C[C@@H](c1ccc2nccn2c1)n1nnc2ncc(-c3cnn(C)c3)nc21 [Savolitinib]; details: max 1 µM
Procedure, shortened: as §1

AZD0156 = compound: CN(C)CCCOc1ccc(-c2ccc3ncc4c(c3c2)n(C2CCOCC2)c(=O)n4C)cn1 [AZD0156]; details: max 3 µM
Procedure, shortened: as §1

Doxorubicin = compound: COc1cccc2c1C(=O)c1c(O)c3c(c(O)c1C2=O)C[C@@](O)(C(=O)CO)C[C@@H]3O[C@H]1C[C@H](N)[C@H](O)[C@H](C)O1 [Doxorubicin]; details: max 1 µM
Procedure, shortened: as §1

AZD4320 = compound: CN(CC[C@H](CSC1=CC=CC=C1)NC2=C(C=C(C=C2)S(=O)(=O)NC(=O)C3=CC=C(C=C3)N4CCC(CC4)[C@H](C5=CC=CC=C5C6=CC=C(C=C6)Cl)O)S(=O)(=O)C(F)(F)F)CCO [AZD4320]; details: max 1 µM
Procedure, shortened: as §1

AZD8186 = compound: C[C@@H](Nc1cc(F)cc(F)c1)c1cc(C(=O)N(C)C)cc2c(=O)cc(N3CCOCC3)oc12 [AZD8186]; details: max 3 µM
Procedure, shortened: as §1

AZD7648 = compound: Cc1cc2ncnn2cc1Nc1ncc2c(n1)n(C1CCOCC1)c(=O)n2C [AZD7648]; details: max 10 µM
Procedure, shortened: as §1

Trametinib = compound: CC(=O)Nc1cccc(-n2c(=O)n(C3CC3)c(=O)c3c(Nc4ccc(I)cc4F)n(C)c(=O)c(C)c32)c1 [Trametinib]; details: max 1 µM
Procedure, shortened: as §1

AZD5153 = compound: COc1nnc2ccc(N3CCC(c4ccc(OCCN5CCN(C)C(=O)[C@H]5C)cc4)CC3)nn12 [AZD5153]; details: max 1 µM
Procedure, shortened: as §1

Crizotinib = compound: C[C@@H](Oc1cc(-c2cnn(C3CCNCC3)c2)cnc1N)c1c(Cl)ccc(F)c1Cl [Crizotinib]; details: max 10 µM
Procedure, shortened: as §1

Prexasertib = compound: COc1cccc(OCCCN)c1-c1cc(Nc2cnc(C#N)cn2)n[nH]1 [Prexasertib]; details: max 1 µM
Procedure, shortened: as §1

AZD1390 = compound: CC(C)n1c(=O)n(C)c2cnc3cc(F)c(-c4ccc(OCCCN5CCCCC5)nc4)cc3c21 [AZD1390]; details: max 0.3 µM
Procedure, shortened: as §1

Lapatinib = compound: CS(=O)(=O)CCNCc1ccc(-c2ccc3ncnc(Nc4ccc(OCc5cccc(F)c5)c(Cl)c4)c3c2)o1 [Lapatinib]; details: max 10 µM
Procedure, shortened: as §1

Venetoclax = compound: CC1(C)CCC(CN2CCN(c3ccc(C(=O)NS(=O)(=O)c4ccc(NCC5CCOCC5)c([N+](=O)[O-])c4)c(Oc4cnc5[nH]ccc5c4)c3)CC2)=C(c2ccc(Cl)cc2)C1 [Venetoclax]; details: max 1 µM
Procedure, shortened: as §1

Olaparib = compound: O=C(c1cc(Cc2n[nH]c(=O)c3ccccc23)ccc1F)N1CCN(C(=O)C2CC2)CC1 [Olaparib]; details: max 10 µM
Procedure, shortened: as §1

SG3199 = compound: CC1=CN2[C@@H](C1)C=NC3=CC(=C(C=C3C2=O)OC)OCCCCCOC4=C(C=C5C(=C4)N=C[C@@H]6CC(=CN6C5=O)C)OC [SG3199]; details: max 0.001 µM
Procedure, shortened: as §1

Selumetinib = compound: Cn1cnc2c(F)c(Nc3ccc(Br)cc3Cl)c(C(=O)NOCCO)cc21 [Selumetinib]; details: max 10 µM
Procedure, shortened: as §1

Capivasertib = compound: C1CN(CCC1(C(=O)N[C@@H](CCO)C2=CC=C(C=C2)Cl)N)C3=NC=NC4=C3C=CN4 [Capivasertib]; details: max 10 µM
Procedure, shortened: as §1

AZD6738 = compound: C[C@@H]1COCCN1C2=NC(=NC(=C2)C3(CC3)[S@](=N)(=O)C)C4=C5C=CNC5=NC=C4 [AZD6738]; details: max 10 µM
Procedure, shortened: as §1

Taselisib = compound: Cc1nc(-c2cn3c(n2)-c2ccc(-c4cnn(C(C)(C)C(N)=O)c4)cc2OCC3)n(C(C)C)n1 [Taselisib]; details: max 10 µM
Procedure, shortened: as §1

AZD1775 = compound: C=CCn1c(=O)c2cnc(Nc3ccc(N4CCN(C)CC4)cc3)nc2n1-c1cccc(C(C)(C)O)n1 [AZD1775]; details: max 3 µM
Procedure, shortened: as §1

Alisertib = compound: COc1cc(Nc2ncc3c(n2)-c2ccc(Cl)cc2C(c2c(F)cccc2OC)=NC3)ccc1C(=O)O [Alisertib]; details: max 10 µM
Procedure, shortened: as §1

MK-2206 = compound: NC1(c2ccc(-c3nc4ccn5c(=O)[nH]nc5c4cc3-c3ccccc3)cc2)CCC1 [MK-2206]; details: max 10 µM
Procedure, shortened: as §1

Cell Line	IC50, cell viability 72 h (Gefitinib)	IC50, cell viability 72 h (Palbociclib)	IC50, cell viability 72 h (AZD2811)	IC50, cell viability 72 h (Dasatinib)	IC50, cell viability 72 h (AZD5991)	IC50, cell viability 72 h (SN-38)	IC50, cell viability 72 h (Savolitinib)	IC50, cell viability 72 h (AZD0156)	IC50, cell viability 72 h (Doxorubicin)	IC50, cell viability 72 h (AZD4320)	IC50, cell viability 72 h (AZD8186)	IC50, cell viability 72 h (AZD7648)	IC50, cell viability 72 h (Trametinib)	IC50, cell viability 72 h (AZD5153)	IC50, cell viability 72 h (Crizotinib)	IC50, cell viability 72 h (Prexasertib)	IC50, cell viability 72 h (AZD1390)	IC50, cell viability 72 h (Lapatinib)	IC50, cell viability 72 h (Venetoclax)	IC50, cell viability 72 h (Olaparib)	IC50, cell viability 72 h (SG3199)	IC50, cell viability 72 h (Selumetinib)	IC50, cell viability 72 h (Capivasertib)	IC50, cell viability 72 h (AZD6738)	IC50, cell viability 72 h (Taselisib)	IC50, cell viability 72 h (AZD1775)	IC50, cell viability 72 h (Alisertib)	IC50, cell viability 72 h (MK-2206)
HCC1428 (Breast Carcinoma)	> 10000 nM	> 10000 nM	> 1000 nM	> 2000 nM	67.7 nM	> 300 nM	> 1000 nM	> 3000 nM	> 1000 nM	> 1000 nM	> 3000 nM	> 10000 nM	> 1000 nM	483 nM	> 10000 nM	> 1000 nM	> 300 nM	> 10000 nM	> 1000 nM	> 10000 nM	> 1 nM	> 10000 nM	> 10000 nM	> 10000 nM	> 10000 nM	> 3000 nM	> 10000 nM	> 10000 nM
A253 (Head and Neck Carcinoma)	> 10000 nM	> 10000 nM	> 1000 nM	> 2000 nM	447 nM	18.7 nM	> 1000 nM	> 3000 nM	177 nM	> 1000 nM	> 3000 nM	> 10000 nM	746 nM	> 1000 nM	> 10000 nM	110 nM	> 300 nM	> 10000 nM	> 1000 nM	> 10000 nM	> 1 nM	> 10000 nM	4080 nM	4570 nM	6730 nM	1130 nM	> 10000 nM	
ESO26 (Esophageal Adenocarcinoma)	4700 nM	> 10000 nM	> 1000 nM	> 2000 nM	> 1000 nM	223 nM	> 1000 nM	> 3000 nM	> 1000 nM	> 1000 nM	> 3000 nM	> 10000 nM	> 1000 nM	398 nM	> 10000 nM	380 nM	> 300 nM	814 nM	> 1000 nM	> 10000 nM	> 1 nM	> 10000 nM	8590 nM	> 10000 nM	1840 nM	1470 nM	> 10000 nM	
NCI-H716 (Colorectal Carcinoma)	> 10000 nM	> 10000 nM	> 1000 nM	> 2000 nM	> 1000 nM	> 300 nM	> 1000 nM	> 3000 nM	> 1000 nM	> 1000 nM	> 3000 nM	> 10000 nM	> 1000 nM	775 nM	> 10000 nM	181 nM	> 300 nM	> 10000 nM	> 1000 nM	> 10000 nM	> 1 nM	> 10000 nM	> 10000 nM	> 10000 nM	> 10000 nM	1600 nM	2230 nM	
